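Each compound was tested at five concentrations against cells in 96-well plates for 48 hours. GI50 marks 50% less growth.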 The source made the active and inactive calls. Cut-off read from the data, not from the text of the source: active = GI50 up to about 1.1 µM and inactive = higher.
Assays:
Assay in all cases: NCI tumour cell line growth inhibition, 48 h
U-251 = tested on: U-251
OVCAR-8 = tested on: OVCAR-8
SF-539 = tested on: SF-539
SNB-75 = tested on: SNB-75
DLD-1 = tested on: DLD-1
SW-620 = tested on: SW-620
UACC-62 = tested on: UACC-62
SF-268 = tested on: SF-268
MOLT-4 = tested on: MOLT-4
KM12 = tested on: KM12
NCI-H226 = tested on: NCI-H226
NCI-H460 = tested on: NCI-H460
HOP-62 = tested on: HOP-62
NCI/ADR-RES = tested on: NCI/ADR-RES
MDA-N = tested on: MDA-N
MDA-MB-231 = tested on: MDA-MB-231
T47D = tested on: T47D
DU-145 = tested on: DU-145

O=C(O)CSc1nnc(-c2ccccc2)[nH]1
GI50 (U-251): > 100 µM (inactive) | GI50 (OVCAR-8): > 100 µM (inactive) | GI50 (SF-539): > 100 µM (inactive) | GI50 (SNB-75): 37.2 µM (inactive) | GI50 (DLD-1): > 100 µM (inactive) | GI50 (SW-620): > 100 µM (inactive) | GI50 (UACC-62): > 100 µM (inactive) | GI50 (SF-268): > 100 µM (inactive) | GI50 (MOLT-4): > 100 µM (inactive) | GI50 (KM12): > 100 µM (inactive) | GI50 (NCI-H226): > 100 µM (inactive) | GI50 (NCI-H460): > 100 µM (inactive) | GI50 (HOP-62): > 100 µM (inactive)

CC(C)NCC(O)c1ccc(O)c2ncccc12 (stereo not given)
GI50 (NCI/ADR-RES): 27.7 µM (inactive) | GI50 (U-251): 31.5 µM (inactive) | GI50 (OVCAR-8): 33.3 µM (inactive) | GI50 (SF-539): 43 µM (inactive) | GI50 (SNB-75): > 100 µM (inactive) | GI50 (SW-620): 36.5 µM (inactive) | GI50 (UACC-62): 60 µM (inactive) | GI50 (SF-268): 35.3 µM (inactive) | GI50 (MOLT-4): 18.2 µM (inactive) | GI50 (MDA-N): 91.2 µM (inactive) | GI50 (KM12): 54.6 µM (inactive) | GI50 (NCI-H226): > 100 µM (inactive) | GI50 (MDA-MB-231): 27 µM (inactive) | GI50 (NCI-H460): 5.58 µM (inactive) | GI50 (T47D): 33.8 µM (inactive) | GI50 (DU-145): 37.2 µM (inactive) | GI50 (HOP-62): 35.5 µM (inactive)

C[C@H](CCC(=O)O)[C@H]1CC[C@H]2[C@@H]3[C@H](O)C[C@@H]4C[C@H](O)CC[C@]4(C)[C@H]3CC[C@]12C [CHENODIOL]
GI50 (NCI/ADR-RES): 36.6 µM (inactive) | GI50 (U-251): 37.6 µM (inactive) | GI50 (OVCAR-8): 12.1 µM (inactive) | GI50 (SF-539): 24.7 µM (inactive) | GI50 (SNB-75): 19.6 µM (inactive) | GI50 (SW-620): 41.7 µM (inactive) | GI50 (UACC-62): 36.6 µM (inactive) | GI50 (SF-268): 44.1 µM (inactive) | GI50 (MOLT-4): 24.7 µM (inactive) | GI50 (MDA-N): 37.7 µM (inactive) | GI50 (KM12): 33.3 µM (inactive) | GI50 (NCI-H226): 22.2 µM (inactive) | GI50 (MDA-MB-231): 49.3 µM (inactive) | GI50 (NCI-H460): 27.1 µM (inactive) | GI50 (T47D): 40.2 µM (inactive) | GI50 (DU-145): 43.2 µM (inactive) | GI50 (HOP-62): 37.2 µM (inactive)

C[N+](C)(C)CC(=O)N/N=C\c1c(O)ccc2ccccc12
GI50 (NCI/ADR-RES): 33.7 µM (inactive) | GI50 (U-251): 21.4 µM (inactive) | GI50 (OVCAR-8): 26.3 µM (inactive) | GI50 (SF-539): 31.5 µM (inactive) | GI50 (SNB-75): 16.8 µM (inactive) | GI50 (SW-620): 63.5 µM (inactive) | GI50 (UACC-62): 28.2 µM (inactive) | GI50 (SF-268): 10.7 µM (inactive) | GI50 (MOLT-4): 9.08 µM (inactive) | GI50 (MDA-N): 42.9 µM (inactive) | GI50 (KM12): 32.4 µM (inactive) | GI50 (NCI-H226): 21 µM (inactive) | GI50 (MDA-MB-231): 92.9 µM (inactive) | GI50 (NCI-H460): 18.1 µM (inactive) | GI50 (T47D): 32.9 µM (inactive) | GI50 (DU-145): 23.8 µM (inactive) | GI50 (HOP-62): 26.7 µM (inactive)

O=C(Nc1sccc1S(=O)(=O)c1ccc(Cl)cc1)c1ccc(Cl)cc1
GI50 (NCI/ADR-RES): > 100 µM (inactive) | GI50 (U-251): 31 µM (inactive) | GI50 (OVCAR-8): 63 µM (inactive) | GI50 (SF-539): 39.9 µM (inactive) | GI50 (SNB-75): 31.8 µM (inactive) | GI50 (SW-620): > 100 µM (inactive) | GI50 (UACC-62): > 100 µM (inactive) | GI50 (SF-268): 65.9 µM (inactive) | GI50 (MOLT-4): > 100 µM (inactive) | GI50 (MDA-N): > 100 µM (inactive) | GI50 (KM12): > 100 µM (inactive) | GI50 (NCI-H226): > 100 µM (inactive) | GI50 (MDA-MB-231): 35.2 µM (inactive) | GI50 (NCI-H460): 56.5 µM (inactive) | GI50 (T47D): > 100 µM (inactive) | GI50 (DU-145): > 100 µM (inactive) | GI50 (HOP-62): 39.4 µM (inactive)

N=C(N)NC(=N)Nc1ccc(S(N)(=O)=O)cc1
GI50 (NCI/ADR-RES): > 100 µM (inactive) | GI50 (U-251): > 100 µM (inactive) | GI50 (OVCAR-8): > 100 µM (inactive) | GI50 (SF-539): > 100 µM (inactive) | GI50 (SNB-75): > 100 µM (inactive) | GI50 (SW-620): > 100 µM (inactive) | GI50 (UACC-62): > 100 µM (inactive) | GI50 (SF-268): > 100 µM (inactive) | GI50 (MOLT-4): > 100 µM (inactive) | GI50 (MDA-N): > 100 µM (inactive) | GI50 (KM12): > 100 µM (inactive) | GI50 (NCI-H226): > 100 µM (inactive) | GI50 (MDA-MB-231): > 100 µM (inactive) | GI50 (NCI-H460): > 100 µM (inactive) | GI50 (T47D): > 100 µM (inactive) | GI50 (DU-145): > 100 µM (inactive) | GI50 (HOP-62): > 100 µM (inactive)

Cc1ccc(C2(c3ccc(F)cc3)OC(=O)c3ccccc32)c(O)c1 (stereo not given)
GI50 (NCI/ADR-RES): 16.1 µM (inactive) | GI50 (U-251): 18.5 µM (inactive) | GI50 (OVCAR-8): 18.2 µM (inactive) | GI50 (SF-539): 18.9 µM (inactive) | GI50 (SNB-75): 12.3 µM (inactive) | GI50 (SW-620): 13.6 µM (inactive) | GI50 (UACC-62): 10.5 µM (inactive) | GI50 (SF-268): 19.5 µM (inactive) | GI50 (MOLT-4): 10.8 µM (inactive) | GI50 (MDA-N): 12 µM (inactive) | GI50 (KM12): 15.5 µM (inactive) | GI50 (NCI-H226): 15 µM (inactive) | GI50 (MDA-MB-231): 17.9 µM (inactive) | GI50 (NCI-H460): 17 µM (inactive) | GI50 (T47D): 13.5 µM (inactive) | GI50 (DU-145): 15.4 µM (inactive) | GI50 (HOP-62): 14.6 µM (inactive)

CC1(C)OC2C(O)C(CO)OC2(C(F)F)O1 (stereo not given)
GI50 (NCI/ADR-RES): > 100 µM (inactive) | GI50 (U-251): > 100 µM (inactive) | GI50 (OVCAR-8): > 100 µM (inactive) | GI50 (SF-539): > 100 µM (inactive) | GI50 (SNB-75): > 100 µM (inactive) | GI50 (SW-620): > 100 µM (inactive) | GI50 (UACC-62): > 100 µM (inactive) | GI50 (SF-268): > 100 µM (inactive) | GI50 (MOLT-4): > 100 µM (inactive) | GI50 (MDA-N): > 100 µM (inactive) | GI50 (KM12): > 100 µM (inactive) | GI50 (NCI-H226): > 100 µM (inactive) | GI50 (MDA-MB-231): > 100 µM (inactive) | GI50 (NCI-H460): > 100 µM (inactive) | GI50 (T47D): > 100 µM (inactive) | GI50 (DU-145): > 100 µM (inactive) | GI50 (HOP-62): > 100 µM (inactive)

CCOC(=O)c1ccc(-c2cccs2)[nH]1
GI50 (NCI/ADR-RES): 42.2 µM (inactive) | GI50 (U-251): > 76.4 µM (inactive) | GI50 (OVCAR-8): > 55.5 µM (inactive) | GI50 (SF-539): > 100 µM (inactive) | GI50 (SNB-75): > 100 µM (inactive) | GI50 (SW-620): > 84.7 µM (inactive) | GI50 (UACC-62): 52.7 µM (inactive) | GI50 (SF-268): > 92 µM (inactive) | GI50 (MOLT-4): 51.4 µM (inactive) | GI50 (MDA-N): 66.8 µM (inactive) | GI50 (KM12): > 100 µM (inactive) | GI50 (NCI-H226): > 100 µM (inactive) | GI50 (MDA-MB-231): > 61.8 µM (inactive) | GI50 (NCI-H460): > 100 µM (inactive) | GI50 (T47D): 31.6 µM (inactive) | GI50 (DU-145): 49 µM (inactive) | GI50 (HOP-62): > 66.4 µM (inactive)

C=C1C(=O)O[C@@H]2C[C@@H]3[C@]4(CC[C@]5(C)[C@@H]([C@H](C)CC/C=C(\C)C=O)CC[C@@]35C)C[C@]4(CCC(=O)OC)[C@H]12
GI50 (NCI/ADR-RES): 2.35 µM (inactive) | GI50 (U-251): 1.38 µM (inactive) | GI50 (OVCAR-8): 1.12 µM (active) | GI50 (SF-539): 2 µM (inactive) | GI50 (SNB-75): 2.4 µM (inactive) | GI50 (SW-620): 1.72 µM (inactive) | GI50 (UACC-62): 1.56 µM (inactive) | GI50 (SF-268): 1.72 µM (inactive) | GI50 (MOLT-4): 0.979 µM (active) | GI50 (MDA-N): 1.61 µM (inactive) | GI50 (KM12): 1.86 µM (inactive) | GI50 (NCI-H226): 3.4 µM (inactive) | GI50 (MDA-MB-231): 1.95 µM (inactive) | GI50 (NCI-H460): 2.8 µM (inactive) | GI50 (T47D): 1.9 µM (inactive) | GI50 (DU-145): 1.79 µM (inactive) | GI50 (HOP-62): 2.38 µM (inactive)

Nn1c(Cc2ccccc2)n[nH]c1=O
GI50 (NCI/ADR-RES): > 100 µM (inactive) | GI50 (U-251): > 100 µM (inactive) | GI50 (OVCAR-8): > 100 µM (inactive) | GI50 (SF-539): > 100 µM (inactive) | GI50 (SNB-75): > 100 µM (inactive) | GI50 (SW-620): > 100 µM (inactive) | GI50 (UACC-62): > 100 µM (inactive) | GI50 (SF-268): > 100 µM (inactive) | GI50 (MOLT-4): > 100 µM (inactive) | GI50 (MDA-N): > 100 µM (inactive) | GI50 (KM12): > 100 µM (inactive) | GI50 (NCI-H226): > 100 µM (inactive) | GI50 (MDA-MB-231): > 100 µM (inactive) | GI50 (NCI-H460): > 10 µM (inactive) | GI50 (T47D): > 100 µM (inactive) | GI50 (DU-145): > 100 µM (inactive) | GI50 (HOP-62): > 100 µM (inactive)

CC(=O)Nc1ccc(C(O)/C(=N/N)c2nc3ccc(Cl)cc3nc2O)cc1 (stereo not given)
GI50 (NCI/ADR-RES): > 100 µM (inactive) | GI50 (U-251): > 100 µM (inactive) | GI50 (OVCAR-8): > 100 µM (inactive) | GI50 (SF-539): > 100 µM (inactive) | GI50 (SNB-75): > 100 µM (inactive) | GI50 (SW-620): > 100 µM (inactive) | GI50 (UACC-62): > 100 µM (inactive) | GI50 (SF-268): > 100 µM (inactive) | GI50 (MOLT-4): > 100 µM (inactive) | GI50 (MDA-N): > 100 µM (inactive) | GI50 (KM12): > 100 µM (inactive) | GI50 (NCI-H226): > 100 µM (inactive) | GI50 (MDA-MB-231): > 100 µM (inactive) | GI50 (NCI-H460): > 100 µM (inactive) | GI50 (T47D): > 100 µM (inactive) | GI50 (DU-145): > 100 µM (inactive) | GI50 (HOP-62): > 100 µM (inactive)

Source: ChEMBL document CHEMBL1201862, “PubChem BioAssay data set” (2004)
